Patent US10774051B2, “6-membered heterocyclic derivatives and pharmaceutical composition comprising the same” (Shionogi & Co., Ltd., priority 2015, dated 2020)
pIC50: −log10 of the molar value.

molecular target: human P2X7 receptor (Homo sapiens, UniProt Q99572, R270H/Y155H); test: Evaluation of human P2X7 receptor inhibitory activity (Yo-Pro uptake, BzATP stimulation, FLIPR TETRA); type: cell-based; conditions: 1321N1 cells stably expressing human P2X7 receptor; BzATP stimulation, Yo-Pro uptake; read-out: IC50 (antagonistic activity for the human P2X7 receptor)
How it was run: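 1321N1 cells stably expressing human P2X7 (T606C/G952A SNP variant), in HBSS buffer pH 7.4-7.5 with Yo-Pro, stimulated with BzATP; compound added 8 min after agonist. Fluorescence followed for 20 min on FLIPR; max-minus-min change gave % inhibition, IC50 by logistic fit.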

In the case of `C=Cc1ccccc1Nc1nc(=O)c(F)cn1Cc1cc(F)c(F)c(F)c1` [Compound I-1188], the pIC50 was 8.40.

same assay, conditions: antagonistic activity for the human P2X7 receptor; read-out: IC50

`Cc1cc(N2CCOCC2)ccc1Nc1nc(=O)c(C)cn1Cc1cc(F)c(F)c(F)c1` [Compound I-1132] and `Cc1cc(N2CCOCC2)ccc1Nc1nc(=O)ccn1Cc1cc(F)c(F)c(F)c1` [Compound I-1149] fall in the same range of pIC50: 7.00 to 8.00 for the first, 7.00 to 8.00 for the second.

`COc1cc(F)c(Nc2nc(=O)c(C)cn2Cc2cc(F)c(F)c(F)c2)cc1OC` [Compound I-1133] and `COc1cc(Cl)c(Nc2nc(=O)c(C)cn2Cc2cc(F)c(F)c(F)c2)cc1OC` [Compound I-1139] fall in the same range of pIC50: 7.00 to 8.00 for the first, 7.00 to 8.00 for the second.

First: Cc1ccc(S(C)(=O)=O)cc1Nc1nc(=O)ccn1Cc1cc(F)c(F)c(F)c1 [Compound I-1134]
Second: Cc1c(Nc2nc(=O)ccn2Cc2cc(F)c(F)c(F)c2)ccc2[nH]ccc12 [Compound I-1169]
The pIC50 of the first is lower: 7.00 to 8.00 for the first, greater than 8.00 for the second.

`COc1cc(C)c(Nc2nc(=O)c(C)c(C)n2Cc2cc(F)cc(F)c2)cc1OC` [Compound I-1135] and `COCc1cc(=O)nc(Nc2cc(OC)c(OC)cc2C)n1Cc1cc(F)cc(F)c1` [Compound I-1142] fall in the same range of pIC50: 7.00 to 8.00 for the first, 7.00 to 8.00 for the second.

`Cc1nc2cc(C)c(Nc3nc(=O)cc(C)n3Cc3cc(F)c(F)c(F)c3)cc2s1` [Compound I-1136] and `COCc1cn(Cc2cc(F)c(F)c(F)c2)c(Nc2cc3sc(C)nc3cc2C)nc1=O` [Compound I-1141] fall in the same range of pIC50: 7.00 to 8.00 for the first, 7.00 to 8.00 for the second.

`Cc1cc(F)c(-c2cccn(C)c2=O)cc1Nc1nc(=O)ccn1Cc1cc(F)c(F)c(F)c1` [Compound I-1137] and `Cc1cc(F)c(-c2cccn(C)c2=O)cc1Nc1nc(=O)c(C)cn1Cc1cc(F)c(F)c(F)c1` [Compound I-1148] fall in the same range of pIC50: 7.00 to 8.00 for the first, 7.00 to 8.00 for the second.

`COCc1cn(Cc2cc(F)c(F)c(F)c2)c(Nc2cc(OC)ccc2C)nc1=O` [Compound I-1138] and `COCc1cn(Cc2cc(F)c(F)c(F)c2)c(Nc2ccc(OC)cc2C)nc1=O` [Compound I-1140] fall in the same range of pIC50: 7.00 to 8.00 for the first, 7.00 to 8.00 for the second.

`Cc1ccc(-c2cccn(C)c2=O)cc1Nc1nc(=O)c(C)cn1Cc1cc(F)c(F)c(F)c1` [Compound I-1143] and `Cc1ccc(OCCO)cc1Nc1nc(=O)c(C)cn1Cc1cc(F)c(F)c(F)c1` [Compound I-1145] fall in the same range of pIC50: 7.00 to 8.00 for the first, 7.00 to 8.00 for the second.

First: COCc1cn(Cc2cc(F)c(F)c(F)c2)c(Nc2cc(OC)c(OC)cc2C)nc1=O [Compound I-1144]
Second: COCc1cn(Cc2cc(F)c(F)c(F)c2)c(Nc2cc(C)c(OC)cc2C)nc1=O [Compound I-1156]
The pIC50 of the first is lower: 7.00 to 8.00 for the first, greater than 8.00 for the second.

First: COCc1cn(Cc2cc(F)c(F)c(F)c2)c(Nc2cc(Cl)c(OC)cc2C)nc1=O [Compound I-1146]
Second: COc1cc(C)c(Nc2nc(=O)c(F)cn2Cc2cc(F)c(F)c(F)c2)cc1Cl [Compound I-1175]
The pIC50 of the first is lower: 7.00 to 8.00 for the first, greater than 8.00 for the second.

`COCc1cc(=O)nc(Nc2cc(OC)c(OC)cc2C)n1Cc1cc(F)c(F)c(F)c1` [Compound I-1147] and `COc1cc(C)c(Nc2nc(=O)ccn2Cc2cc(F)c(F)c(F)c2)cc1OC` [Compound I-1150] fall in the same range of pIC50: 7.00 to 8.00 for the first, 7.00 to 8.00 for the second.

Compared with `COc1ccc(C)c(Nc2nc(=O)c(C#N)cn2Cc2cc(F)c(F)c(F)c2)c1` [Compound I-1151], `COc1ccc(Nc2nc(=O)c(C)cn2Cc2cc(F)c(F)c(F)c2)c(C)c1` [Compound I-1154] is higher in pIC50: 7.00 to 8.00 for the first, greater than 8.00 for the second.

`COCc1cn(Cc2cc(F)c(F)c(F)c2)c(Nc2cc(CO)ccc2C)nc1=O` [Compound I-1152] and `COCc1cn(Cc2cc(F)c(F)c(F)c2)c(Nc2cc(C)cc3[nH]ccc23)nc1=O` [Compound I-1155] cannot be ordered by pIC50: greater than 8.00 for the first, greater than 8.00 for the second.

`COc1cc(C)c(Nc2nc(=O)c(C)cn2Cc2cc(F)c(F)c(F)c2)cc1OC` [Compound I-1153] and `COc1cc(C)c(Nc2nc(=O)c(F)cn2Cc2cc(F)c(F)c(F)c2)cc1C` [Compound I-1180] cannot be ordered by pIC50: greater than 8.00 for the first, greater than 8.00 for the second.

`Cc1ccc(-c2nnco2)cc1Nc1nc(=O)c(Cl)cn1Cc1cc(F)c(F)c(F)c1` [Compound I-1157] and `Cc1ccc(Cl)cc1Nc1nc(=O)c(F)cn1Cc1cc(F)c(F)c(F)c1` [Compound I-1209] cannot be ordered by pIC50: greater than 8.00 for the first, greater than 8.00 for the second.

`COc1cc(C)c(Nc2nc(=O)c(C(N)=O)cn2Cc2ccc(F)c(F)c2)cc1C` [Compound I-1158] and `COc1cc(C)c(Nc2nc(=O)c(C#N)cn2Cc2ccc(F)c(F)c2)cc1C` [Compound I-1160] cannot be ordered by pIC50: greater than 8.00 for the first, greater than 8.00 for the second.

`COc1cc(C)c(Nc2nc(=O)ccn2Cc2ccc(F)c(Cl)c2)cc1OC` [Compound I-1159] and `COc1cc(Nc2nc(=O)ccn2Cc2ccc(F)c(Cl)c2)c(C)c(OC)c1` [Compound I-1166] cannot be ordered by pIC50: greater than 8.00 for the first, greater than 8.00 for the second.

`Cc1cc(Nc2nc(=O)ccn2Cc2cc(F)c(F)c(F)c2)c2cc[nH]c2c1` [Compound I-1161] and `Cc1cn(Cc2cc(F)c(F)c(F)c2)c(Nc2ccc3[nH]ccc3c2C)nc1=O` [Compound I-1165] cannot be ordered by pIC50: greater than 8.00 for the first, greater than 8.00 for the second.

`O=C1CCCc2c(Nc3nc(=O)c(Cl)cn3Cc3cc(F)c(F)c(F)c3)cccc21` [Compound I-1162] and `O=c1nc(Nc2cccc3c2CCCO3)n(Cc2cc(F)c(F)c(F)c2)cc1F` [Compound I-1173] cannot be ordered by pIC50: greater than 8.00 for the first, greater than 8.00 for the second.

`COCc1cn(Cc2cc(F)c(F)c(F)c2)c(Nc2ccc3[nH]ccc3c2C)nc1=O` [Compound I-1163] and `COCc1cccc(Nc2nc(=O)c(F)cn2Cc2cc(F)c(F)c(F)c2)c1C` [Compound I-1178] cannot be ordered by pIC50: greater than 8.00 for the first, greater than 8.00 for the second.

`Cc1cn(Cc2cc(F)cc(F)c2)c(Nc2ccc3[nH]ccc3c2C)nc1=O` [Compound I-1164] and `Cc1cn(Cc2ccc(F)c(F)c2)c(Nc2ccc3[nH]ccc3c2C)nc1=O` [Compound I-1168] cannot be ordered by pIC50: greater than 8.00 for the first, greater than 8.00 for the second.

`COc1ccc(Nc2nc(=O)cc(C)n2Cc2cc(F)c(F)c(F)c2)c(C)c1` [Compound I-1167] and `Cc1ccc(Nc2nc(=O)c(F)cn2Cc2cc(F)c(F)c(F)c2)c(C)c1` [Compound I-1193] cannot be ordered by pIC50: greater than 8.00 for the first, greater than 8.00 for the second.

`Cc1c(Nc2nc(=O)ccn2Cc2ccc(F)c(Cl)c2)ccc2[nH]ccc12` [Compound I-1170] and `Cc1c(Nc2nc(=O)ccn2Cc2cc(F)cc(F)c2)ccc2[nH]ccc12` [Compound I-1171] cannot be ordered by pIC50: greater than 8.00 for the first, greater than 8.00 for the second.

`COc1cc(C)c(Nc2nc(=O)c(F)cn2Cc2cc(F)cc(F)c2)cc1Cl` [Compound I-1174] and `Cc1cc(Nc2nc(=O)c(F)cn2Cc2cc(F)cc(F)c2)c(C)cc1Cl` [Compound I-1206] cannot be ordered by pIC50: greater than 8.00 for the first, greater than 8.00 for the second.

`CCc1ccccc1Nc1nc(=O)c(F)cn1Cc1cc(F)c(F)c(F)c1` [Compound I-1176] and `CCc1ccc(Cl)cc1Nc1nc(=O)c(F)cn1Cc1cc(F)c(F)c(F)c1` [Compound I-1190] cannot be ordered by pIC50: greater than 8.00 for the first, greater than 8.00 for the second.

`Cc1c(CO)cccc1Nc1nc(=O)c(F)cn1Cc1cc(F)c(F)c(F)c1` [Compound I-1177] and `Cc1c(F)cccc1Nc1nc(=O)c(F)cn1Cc1cc(F)c(F)c(F)c1` [Compound I-1181] cannot be ordered by pIC50: greater than 8.00 for the first, greater than 8.00 for the second.

`COCCOc1ccc(C)c(Nc2nc(=O)c(F)cn2Cc2cc(F)c(F)c(F)c2)c1` [Compound I-1179] and `Cc1ccc(OCCO)cc1Nc1nc(=O)c(F)cn1Cc1cc(F)c(F)c(F)c1` [Compound I-1205] cannot be ordered by pIC50: greater than 8.00 for the first, greater than 8.00 for the second.

`Cc1nc2cc(Cl)c(Nc3nc(=O)c(F)cn3Cc3cc(F)c(F)c(F)c3)cc2s1` [Compound I-1182] and `Cc1nc2ccc(Nc3nc(=O)c(F)cn3Cc3cc(F)c(F)c(F)c3)c(C)c2s1` [Compound I-1199] cannot be ordered by pIC50: greater than 8.00 for the first, greater than 8.00 for the second.

`Cc1nc2cc(C)c(Nc3nc(=O)c(F)cn3Cc3cc(F)c(F)c(F)c3)cc2o1` [Compound I-1183] and `Cc1cc(C)c(Nc2nc(=O)c(F)cn2Cc2cc(F)c(F)c(F)c2)cc1C` [Compound I-1200] cannot be ordered by pIC50: greater than 8.00 for the first, greater than 8.00 for the second.

`Cc1ccc(Nc2nc(=O)c(F)cn2Cc2cc(F)c(F)c(F)c2)c(Cl)c1` [Compound I-1184] and `Cc1ccc(Cl)c(Nc2nc(=O)c(F)cn2Cc2cc(F)c(F)c(F)c2)c1` [Compound I-1195] cannot be ordered by pIC50: greater than 8.00 for the first, greater than 8.00 for the second.

`Cc1cccc(Nc2nc(=O)c(F)cn2Cc2cc(F)c(F)c(F)c2)c1F` [Compound I-1185] and `Cc1cccc(Nc2nc(=O)c(F)cn2Cc2cc(F)c(F)c(F)c2)c1C` [Compound I-1189] cannot be ordered by pIC50: greater than 8.00 for the first, greater than 8.00 for the second.

`COc1ccc(Nc2nc(=O)c(F)cn2Cc2cc(F)c(F)c(F)c2)c(Cl)c1` [Compound I-1186] and `COc1ccc(Cl)c(Nc2nc(=O)c(F)cn2Cc2cc(F)c(F)c(F)c2)c1` [Compound I-1196] cannot be ordered by pIC50: greater than 8.00 for the first, greater than 8.00 for the second.

`COc1cc(Cl)c(Nc2nc(=O)c(F)cn2Cc2cc(F)c(F)c(F)c2)cc1OC` [Compound I-1187] and `Cc1cc(Nc2nc(=O)c(F)cn2Cc2cc(F)c(F)c(F)c2)c(C)cc1Cl` [Compound I-1207] cannot be ordered by pIC50: greater than 8.00 for the first, greater than 8.00 for the second.

`CCc1ccc(OC)cc1Nc1nc(=O)c(F)cn1Cc1cc(F)c(F)c(F)c1` [Compound I-1191] and `CCc1cc(OC)ccc1Nc1nc(=O)c(F)cn1Cc1cc(F)c(F)c(F)c1` [Compound I-1197] cannot be ordered by pIC50: greater than 8.00 for the first, greater than 8.00 for the second.

`Cc1cc(Cl)ccc1Nc1nc(=O)c(F)cn1Cc1cc(F)c(F)c(F)c1` [Compound I-1192] and `Cc1ccc(C)c(Nc2nc(=O)c(F)cn2Cc2cc(F)c(F)c(F)c2)c1` [Compound I-1194] cannot be ordered by pIC50: greater than 8.00 for the first, greater than 8.00 for the second.

`Cc1nc2ccc(Nc3nc(=O)c(F)cn3Cc3cc(F)cc(F)c3)c(C)c2s1` [Compound I-1198] and `Cc1c(Nc2nc(=O)c(F)cn2Cc2cc(F)cc(F)c2)ccc2scnc12` [Compound I-1202] cannot be ordered by pIC50: greater than 8.00 for the first, greater than 8.00 for the second.

`CCOc1cc(C)c(Nc2nc(=O)c(F)cn2Cc2cc(F)c(F)c(F)c2)cc1C` [Compound I-1201] and `Cc1cc(OC(F)F)c(C)cc1Nc1nc(=O)c(F)cn1Cc1cc(F)c(F)c(F)c1` [Compound I-1210] cannot be ordered by pIC50: greater than 8.00 for the first, greater than 8.00 for the second.

`Cc1c(Nc2nc(=O)c(F)cn2Cc2cc(F)c(F)c(F)c2)ccc2scnc12` [Compound I-1203] and `CCc1cc(F)ccc1Nc1nc(=O)c(F)cn1Cc1cc(F)c(F)c(F)c1` [Compound I-1208] cannot be ordered by pIC50: greater than 8.00 for the first, greater than 8.00 for the second.

`COCCOc1cc(Nc2nc(=O)c(F)cn2Cc2cc(F)c(F)c(F)c2)c(C)cc1F` [Compound I-1204] showed a pIC50 greater than 8.00.
